Measured values published in the supplement of paper PMC10307832.

How the values were obtained:
Assay in all cases: relative viability (nuclei count vs DMSO), 5 days (fraction); higher = more cells survive
NCI-H1355 = system: NCI-H1355
Procedure, shortened: (§1)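 Nuclei were stained with Hoechst during a one-step fixation (final 0.05% Triton X-100, 1% formaldehyde, 1 ug/ml Hoechst) carried out 5 days after dosing, then counted on 4× images. The cells, lung cancer lines in 1536-well plates, had been dosed by pin tool the day after seeding with one drug alone or a fixed anchor-drug dose plus five library-drug doses (not always all listed) in √10 steps. Relative viability is the nuclei count in treated wells divided by that in vehicle wells, and each value is the median of duplicate plates.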

NCI-H322M = system: NCI-H322M
Procedure, shortened: as §1

NCI-H1651 = system: NCI-H1651
Procedure, shortened: as §1

NCI-H460 = system: NCI-H460
Procedure, shortened: as §1

NCI-H441 = system: NCI-H441
Procedure, shortened: as §1

RERF-LC-KJ = system: RERF-LC-KJ
Procedure, shortened: as §1

NCI-H727 = system: NCI-H727
Procedure, shortened: as §1

NCI-H1563 = system: NCI-H1563
Procedure, shortened: as §1

NCI-H3122 = system: NCI-H3122
Procedure, shortened: as §1

NCI-H1792 = system: NCI-H1792
Procedure, shortened: as §1

NCI-H1755 = system: NCI-H1755
Procedure, shortened: as §1

Work on `COc1cc(N2CCC(C(N)=O)CC2)ccc1Nc1nc(N)c(Cl)c(Nc2ccccc2S(=O)(=O)C(C)C)n1` [HG-5-88-01] + C[C@@H](Oc1cc(-c2cnn(C3CCNCC3)c2)cnc1N)c1c(Cl)ccc(F)c1Cl [Crizotinib] (partner 1 µM) yielded a relative viability (NCI-H1355; first compound 0.04 µM) of 1.19, a relative viability (NCI-H1355; first compound 0.1265 µM) of 1.05 and a relative viability (NCI-H1355; first compound 0.4 µM) of 1.02. For the same compound, the relative viability (NCI-H1355; first compound 1.265 µM) was 0.983, the relative viability (NCI-H1355; first compound 4 µM) was 0.972 and the relative viability (NCI-H322M; first compound 0.04 µM) was 0.978. For the same compound, the relative viability (NCI-H322M; first compound 0.1265 µM) was 0.855, the relative viability (NCI-H322M; first compound 0.4 µM) was 0.882 and the relative viability (NCI-H322M; first compound 1.265 µM) was 0.687. The relative viability (NCI-H322M; first compound 4 µM) was 0.818, the relative viability (NCI-H1651; first compound 0.04 µM) was 0.866 and the relative viability (NCI-H1651; first compound 0.1265 µM) was 0.828. For the same compound, the relative viability (NCI-H1651; first compound 0.4 µM) was 0.808, the relative viability (NCI-H1651; first compound 1.265 µM) was 0.713 and the relative viability (NCI-H1651; first compound 4 µM) was 0.942. For the same compound, the relative viability (NCI-H460; first compound 0.04 µM) was 0.83, the relative viability (NCI-H460; first compound 0.1265 µM) was 1.06 and the relative viability (NCI-H460; first compound 0.4 µM) was 0.851. For the same compound, the relative viability (NCI-H460; first compound 1.265 µM) was 0.843, the relative viability (NCI-H460; first compound 4 µM) was 0.0524 and the relative viability (NCI-H441; first compound 0.04 µM) was 0.655. For the same compound, the relative viability (NCI-H441; first compound 0.1265 µM) was 0.764, the relative viability (NCI-H441; first compound 0.4 µM) was 0.554 and the relative viability (NCI-H441; first compound 1.265 µM) was 0.648. The relative viability (NCI-H441; first compound 4 µM) was 0.431, the relative viability (RERF-LC-KJ; first compound 0.04 µM) was 0.816 and the relative viability (RERF-LC-KJ; first compound 0.1265 µM) was 0.816. For the same compound, the relative viability (RERF-LC-KJ; first compound 0.4 µM) was 0.81, the relative viability (RERF-LC-KJ; first compound 1.265 µM) was 0.782 and the relative viability (RERF-LC-KJ; first compound 4 µM) was 0.535. The relative viability (NCI-H727; first compound 0.04 µM) was 0.931, the relative viability (NCI-H727; first compound 0.1265 µM) was 0.937 and the relative viability (NCI-H727; first compound 0.4 µM) was 0.827. It also gave a relative viability (NCI-H727; first compound 1.265 µM) of 0.492, a relative viability (NCI-H727; first compound 4 µM) of 0.585 and a relative viability (NCI-H1563; first compound 0.04 µM) of 0.917. The relative viability (NCI-H1563; first compound 0.1265 µM) was 0.88, the relative viability (NCI-H1563; first compound 0.4 µM) was 0.832 and the relative viability (NCI-H1563; first compound 1.265 µM) was 0.806. The relative viability (NCI-H1563; first compound 4 µM) was 0.854, the relative viability (NCI-H3122; first compound 0.04 µM) was 0.271 and the relative viability (NCI-H3122; first compound 0.1265 µM) was 0.264. For the same compound, the relative viability (NCI-H3122; first compound 0.4 µM) was 0.292, the relative viability (NCI-H3122; first compound 1.265 µM) was 0.233 and the relative viability (NCI-H3122; first compound 4 µM) was 0.173. It also gave a relative viability (NCI-H1792; first compound 0.04 µM) of 1.11, a relative viability (NCI-H1792; first compound 0.1265 µM) of 0.968 and a relative viability (NCI-H1792; first compound 0.4 µM) of 0.869. The relative viability (NCI-H1792; first compound 1.265 µM) was 0.947, the relative viability (NCI-H1792; first compound 4 µM) was 0.978 and the relative viability (NCI-H1755; first compound 0.1265 µM) was 0.86. It also gave a relative viability (NCI-H1755; first compound 0.4 µM) of 0.854, a relative viability (NCI-H1755; first compound 1.265 µM) of 0.768 and a relative viability (NCI-H1755; first compound 4 µM) of 0.933.
